Columns and labels:
[1] = molecular target: full length human TREX1 (Homo sapiens (Human), UniProt Q9NSU2); assay: TREX1 Biochemical Assay (fluorescence assay measuring degradation of dsDNA substrate); settings: 150 pM TREX1, 60 nM dsDNA substrate, 25 minutes at room temperature
Experimental: Degradation of the dsDNA liberates free fluorophore to produce a fluorescent signal. Specifically, 7.5 μL of N-terminally His-Tev tagged full length human TREX1 (expressed in E. coli and purified in house) in reaction buffer (50 mM Tris (pH 7.4), 150 mM NaCl, 2 mM DTT, 0.1 mg/mL BSA, 0.01% (v/v) Tween-20 and 100 mM MgCl2 were added to a 384-well Black ProxiPlate Plus (Perkin Elmer) which already contained compound (150 nL) at varying concentrations as a 10 point dose-response in DMSO. To this was added 7.5 μL of dsDNA substrate (Strand A: 5′ TEX615/GCT AGG CAG 3′; Strand B: 5′ CTG CCT AGC/IAbRQSp (Integrated DNA Technologies)) in reaction buffer. Final concentrations were 150 pM TREX1, 60 nM dsDNA substrate in reaction buffer with 1.0% DMSO (v/v). After 25 minutes at room temperature, reactions were quenched by the addition of 5 μL of stop buffer (same as reaction buffer plus 200 mM EDTA). Final concentrations in the quenched reaction were 112.5 pM TREX1, 45 nM DNA and 50 mM EDTA in a volume of 20 μL. After a 5-minute incubation at room temperature, plates were read in a laser sourced Envision (Perkin-Elmer), measuring fluorescence at 615 nm following excitation w/570 nm light. IC50 values were calculated by comparing the measured fluorescence at 615 nm ratio relative to control wells pre-quenched w/stop buffer (100% inhibition) and no inhibitor (0% inhibition) controls as using non-linear least square four parameter fits and either Genedata or GraphPad Prism (GraphPad Software, Inc.).

[2] = molecular target: human TREX2 (residues M44-A279) (Homo sapiens (Human), UniProt Q9BQ50); assay: TREX2 Biochemical Assay (fluorescence assay measuring degradation of dsDNA substrate); settings: 2.5 nM TREX2, 60 nM dsDNA substrate, 25 minutes at room temperature
Chain of human TREX2 (residues M44-A279) (Q9BQ50 whole entry, the tested form may be a part): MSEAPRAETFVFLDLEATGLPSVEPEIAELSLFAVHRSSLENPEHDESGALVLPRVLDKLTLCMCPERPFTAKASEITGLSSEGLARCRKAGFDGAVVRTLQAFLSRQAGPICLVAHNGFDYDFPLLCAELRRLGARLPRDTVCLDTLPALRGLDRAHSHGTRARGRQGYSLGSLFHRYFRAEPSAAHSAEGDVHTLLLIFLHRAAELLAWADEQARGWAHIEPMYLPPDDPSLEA
Experimental: Degradation of the dsDNA liberates free fluorophore to produce a fluorescent signal. Specifically, 7.5 μL of N-terminally His-Tev tagged human TREX2 (residues M44-A279, expressed in E. coli and purified in house) in reaction buffer (50 mM Tris (pH 7.4), 150 mM NaCl, 2 mM DTT, 0.1 mg/mL BSA, 0.01% (v/v) Tween-20 and 100 mM MgCl2) was added to a 384-well Black ProxiPlate Plus (Perkin Elmer) which already contained compound (150 nL) at varying concentrations as a 10 point dose-response in DMSO. To this was added 7.5 μL of dsDNA substrate (Strand A: 5′ TEX615/GCT AGG CAG 3′; Strand B: 5′ CTG CCT AGC/IAbRQSp (IDT)) in reaction buffer. Final concentrations were 2.5 nM TREX2, 60 nM dsDNA substrate in reaction buffer with 1.0% DMSO (v/v). After 25 minutes at room temperature, reactions were quenched by the addition of 5 μL of stop buffer (same as reaction buffer plus 200 mM EDTA). Final concentrations in the quenched reaction mixture were […] TREX2, 45 nM DNA and 50 mM EDTA in a volume of 20 μL. After a 5-minute incubation at room temperature, plates were read in a laser sourced Envision (Perkin-Elmer), measuring fluorescence at 615 nm following excitation w/570 nm light. IC50 values were calculated by comparing the measured fluorescence at 615 nm ratio relative to control wells pre-quenched w/stop buffer (100% inhibition) and no inhibitor (0% inhibition) controls as using non-linear least square four parameter fits and either Genedata or GraphPad Prism (GraphPad Software, Inc.).

Chain of full length human TREX1 (Q9NSU2 whole entry): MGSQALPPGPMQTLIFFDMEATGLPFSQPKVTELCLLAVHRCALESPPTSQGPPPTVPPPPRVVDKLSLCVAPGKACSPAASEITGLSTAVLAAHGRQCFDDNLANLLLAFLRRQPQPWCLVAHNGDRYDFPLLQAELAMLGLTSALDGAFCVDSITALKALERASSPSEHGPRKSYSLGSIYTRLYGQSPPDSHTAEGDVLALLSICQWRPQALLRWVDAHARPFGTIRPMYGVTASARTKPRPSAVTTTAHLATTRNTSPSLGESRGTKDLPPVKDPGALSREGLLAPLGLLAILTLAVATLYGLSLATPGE

In the case of `Cn1c(Cc2ccccn2)nc(C(=O)Nc2cnoc2)c(O)c1=O` [Example 26, 5-hydroxy-N-(isoxazol-4-yl)-1-methyl-6-oxo-2-(pyridin-2-ylmethyl)-1,6-dihydropyrimidine-4-carboxamide], the IC50 [1] is reported as 1000 to 10000 nM and the IC50 [2] is reported as 10000 to 100000 nM.

`Cn1c(-c2ccccn2)nc(C(=O)Nc2cnoc2)c(O)c1=O` [Example 27, 5-hydroxy-N-(isoxazol-4-yl)-1-methyl-6-oxo-2-(pyridin-2-yl)-1,6-dihydropyrimidine-4-carboxamide] gave an IC50 [1] of over 10000 nM and an IC50 [2] of over 100000 nM.

`Cn1c(N2CCCCC2)nc(C(=O)Nc2cnoc2)c(O)c1=O` [Example 28, 5-hydroxy-N-(isoxazol-4-yl)-1-methyl-6-oxo-2-(piperidin-1-yl)-1,6-dihydropyrimidine-4-carboxamide] gave an IC50 [1] of 100 to 1000 nM and an IC50 [2] of 10000 to 100000 nM.

In the case of `Cn1c(-c2cccnc2)nc(C(=O)Nc2cnoc2)c(O)c1=O` [Example 29, 5-hydroxy-N-(isoxazol-4-yl)-1-methyl-6-oxo-2-(pyridin-3-yl)-1,6-dihydropyrimidine-4-carboxamide], the IC50 [1] is reported as 1000 to 10000 nM and the IC50 [2] is reported as 10000 to 100000 nM.

`Cn1c(-c2cc(Cl)cc(Cl)c2)nc(C(=O)Nc2cnoc2)c(O)c1=O` [Example 30, 2-(3,5-dichlorophenyl)-5-hydroxy-N-(isoxazol-4-yl)-1-methyl-6-oxo-1,6-dihydropyrimidine-4-carboxamide] gave an IC50 [1] of 100 to 1000 nM and an IC50 [2] of 1000 to 10000 nM.

`Cc1cc(-c2nc(C(=O)Nc3cnoc3)c(O)c(=O)n2C)cc(N2CCOCC2)c1` [Example 31, 5-hydroxy-N-(isoxazol-4-yl)-1-methyl-2-(3-methyl-5-morpholinophenyl)-6-oxo-1,6-dihydropyrimidine-4-carboxamide] showed an IC50 [1] of 100 to 1000 nM and an IC50 [2] of 1000 to 10000 nM.

`Cc1cc(Nc2cnn(C)c2)cc(-c2nc(C(=O)Nc3cnoc3)c(O)c(=O)n2C)c1` [Example 32, 5-hydroxy-N-(isoxazol-4-yl)-1-methyl-2-(3-methyl-5-((1-methyl-1H-pyrazol-4-yl)amino)phenyl)-6-oxo-1,6-dihydropyrimidine-4-carboxamide] gave an IC50 [1] of 100 to 1000 nM and an IC50 [2] of 1000 to 10000 nM.

`Cc1cc(-c2nc(C(=O)Nc3cnoc3)c(O)c(=O)n2C)cc(N2CCN(C)CC2)c1` [Example 33, 5-hydroxy-N-(isoxazol-4-yl)-1-methyl-2-(3-methyl-5-(4-methylpiperazin-1-yl)phenyl)-6-oxo-1,6-dihydropyrimidine-4-carboxamide] gave an IC50 [1] of 100 to 1000 nM and an IC50 [2] of 10000 to 100000 nM.

Work on `Cc1cc(Nc2cccc(C)n2)cc(-c2nc(C(=O)Nc3cnoc3)c(O)c(=O)n2C)c1` [Example 34, 5-hydroxy-N-(isoxazol-4-yl)-1-methyl-2-(3-methyl-5-((6-methylpyridin-2-yl)amino)phenyl)-6-oxo-1,6-dihydropyrimidine-4-carboxamide] yielded an IC50 [1] of 100 to 1000 nM and an IC50 [2] of 1000 to 10000 nM.

`Cc1cc(-c2ccn(C)n2)cc(-c2nc(C(=O)Nc3cnoc3)c(O)c(=O)n2C)c1` [Example 35, 5-hydroxy-N-(isoxazol-4-yl)-1-methyl-2-(3-methyl-5-(1-methyl-1H-pyrazol-3-yl)phenyl)-6-oxo-1,6-dihydropyrimidine-4-carboxamide] gave an IC50 [1] of 100 to 1000 nM and an IC50 [2] of 1000 to 10000 nM.

In the case of `Cc1cc(C(=O)N(C)C)cc(-c2nc(C(=O)Nc3cnoc3)c(O)c(=O)n2C)c1` [Example 36, 2-(3-(dimethylcarbamoyl)-5-methylphenyl)-5-hydroxy-N-(isoxazol-4-yl)-1-methyl-6-oxo-1,6-dihydropyrimidine-4-carboxamide], the IC50 [1] is reported as 100 to 1000 nM and the IC50 [2] is reported as 10000 to 100000 nM.

`Cc1cc(C(=O)NC2CCOCC2)cc(-c2nc(C(=O)Nc3cnoc3)c(O)c(=O)n2C)c1` [Example 37, 5-hydroxy-N-(isoxazol-4-yl)-1-methyl-2-(3-methyl-5-((tetrahydro-2H-pyran-4-yl)carbamoyl)phenyl)-6-oxo-1,6-dihydropyrimidine-4-carboxamide] was tested, and the IC50 [1] was 100 to 1000 nM and the IC50 [2] was 10000 to 100000 nM.

Compound `Cc1cc(C(=O)NCCO)cc(-c2nc(C(=O)Nc3cnoc3)c(O)c(=O)n2C)c1` [Example 38, 5-hydroxy-2-(3-((2-hydroxyethyl)carbamoyl)-5-methylphenyl)-N-(isoxazol-4-yl)-1-methyl-6-oxo-1,6-dihydropyrimidine-4-carboxamide] has an IC50 [1] of 100 to 1000 nM and an IC50 [2] of 10000 to 100000 nM.

With `Cn1c(C2CCCN(Cc3ccccc3)C2)nc(C(=O)Nc2cnoc2)c(O)c1=O` (stereo not drawn) [Example 39, 2-(1-benzylpiperidin-3-yl)-5-hydroxy-N-(isoxazol-4-yl)-1-methyl-6-oxo-1,6-dihydropyrimidine-4-carboxamide] the IC50 [1] was 1000 to 10000 nM and the IC50 [2] was 10000 to 100000 nM.

`Cn1c(C2CCCN(C(=O)c3ccccn3)C2)nc(C(=O)Nc2cnoc2)c(O)c1=O` (stereo not drawn) [Example 40, 5-hydroxy-N-(isoxazol-4-yl)-1-methyl-6-oxo-2-(1-picolinoylpiperidin-3-yl)-1,6-dihydropyrimidine-4-carboxamide] showed an IC50 [1] of 100 to 1000 nM and an IC50 [2] of 1000 to 10000 nM.

With `COc1ccccc1C(=O)N1CCCC(c2nc(C(=O)Nc3cnoc3)c(O)c(=O)n2C)C1` (stereo not drawn) [Example 41, 5-hydroxy-N-(isoxazol-4-yl)-2-(1-(2-methoxybenzoyl)piperidin-3-yl)-1-methyl-6-oxo-1,6-dihydropyrimidine-4-carboxamide] the IC50 [1] was 100 to 1000 nM and the IC50 [2] was 10000 to 100000 nM.

With `Cn1c(-c2cnn(Cc3ccccc3)c2)nc(C(=O)Nc2cnoc2)c(O)c1=O` [Example 42, 2-(1-benzyl-1H-pyrazol-4-yl)-5-hydroxy-N-(isoxazol-4-yl)-1-methyl-6-oxo-1,6-dihydropyrimidine-4-carboxamide] the IC50 [1] was 100 to 1000 nM and the IC50 [2] was 10000 to 100000 nM.

Compound `Cn1c(C2CCCN(C(=O)CCc3ccccc3)C2)nc(C(=O)Nc2cnoc2)c(O)c1=O` (stereo not drawn) [Example 43, 5-hydroxy-N-(isoxazol-4-yl)-1-methyl-6-oxo-2-(1-(3-phenylpropanoyl)piperidin-3-yl)-1,6-dihydropyrimidine-4-carboxamide] has an IC50 [1] of under 100 nM and an IC50 [2] of 1000 to 10000 nM.

Work on `Cc1cccc(-c2nc(C(=O)Nc3cnoc3)c(O)c(=O)n2C)c1` [Example 44, 5-hydroxy-N-(isoxazol-4-yl)-1-methyl-6-oxo-2-(m-tolyl)-1,6-dihydropyrimidine-4-carboxamide] yielded an IC50 [1] of 100 to 1000 nM and an IC50 [2] of 10000 to 100000 nM.

`Cn1c(C2CCCN(C(=O)c3cccc(Cl)c3)C2)nc(C(=O)Nc2cnoc2)c(O)c1=O` (stereo not drawn) [Example 45, 2-(1-(3-chlorobenzoyl)piperidin-3-yl)-5-hydroxy-N-(isoxazol-4-yl)-1-methyl-6-oxo-1,6-dihydropyrimidine-4-carboxamide] was tested, and the IC50 [1] was under 100 nM and the IC50 [2] was 1000 to 10000 nM.

In the case of `Cn1c(C2CCCN(C(=O)c3ccccc3Cl)C2)nc(C(=O)Nc2cnoc2)c(O)c1=O` (stereo not drawn) [Example 46, 2-(1-(2-chlorobenzoyl)piperidin-3-yl)-5-hydroxy-N-(isoxazol-4-yl)-1-methyl-6-oxo-1,6-dihydropyrimidine-4-carboxamide], the IC50 [1] is reported as 100 to 1000 nM and the IC50 [2] is reported as 10000 to 100000 nM.

Compound `COc1ccc(C(=O)N2CCCC(c3nc(C(=O)Nc4cnoc4)c(O)c(=O)n3C)C2)cc1` (stereo not drawn) [Example 47, 5-hydroxy-N-(isoxazol-4-yl)-2-(1-(4-methoxybenzoyl)piperidin-3-yl)-1-methyl-6-oxo-1,6-dihydropyrimidine-4-carboxamide] has an IC50 [1] of 100 to 1000 nM and an IC50 [2] of 1000 to 10000 nM.

Compound `COc1cccc(C(=O)N2CCCC(c3nc(C(=O)Nc4cnoc4)c(O)c(=O)n3C)C2)c1` (stereo not drawn) [Example 48, 5-hydroxy-N-(isoxazol-4-yl)-2-(1-(3-methoxybenzoyl)piperidin-3-yl)-1-methyl-6-oxo-1,6-dihydropyrimidine-4-carboxamide] has an IC50 [1] of 100 to 1000 nM and an IC50 [2] of 1000 to 10000 nM.

`CN1CCN(c2nc(C(=O)Nc3cnoc3)c(O)c(=O)n2C)CC1` [Example 49, 5-hydroxy-N-(isoxazol-4-yl)-1-methyl-2-(4-methylpiperazin-1-yl)-6-oxo-1,6-dihydropyrimidine-4-carboxamide] was tested, and the IC50 [1] was 100 to 1000 nM and the IC50 [2] was 10000 to 100000 nM.

— patent US12172990B2 (Constellation Pharmaceuticals, Inc., priority 2018, dated 2024)
